The values below come from ChEMBL document CHEMBL3430912, “GSK Tres Cantos Anti-Kinetoplastid Screening (TCAKS) Data”.

Structures are written as SMILES.

Data set [1] relates to Trypanosoma cruzi. The experiment in a line: GSK_TCAKS: pIC50 Trypanosoma cruzi viability assay using beta-GAL activity. This assay was run at single shot at 5uM compound concentration per well. The biological reagents consisted of NIH-3T3 host cells and trypomastigotes parasitic cells; both cell types were set to a 3.3 * 10^5 cells/mL dilution in assay DMEM by means of a CASY cell counter device using a 60um capillary. 6 uL of the mixture were dispensed per well (about 1 * 10^3 host-cells and 1 * 10^3 parasites) with a Multidrop Combi dispenser. […] In all wells, the percentage of DMSO never exceeded 0.5%. Plates incubated for four days at 37C, 5% CO2. The substrate used for the assay fluorescence intensity (FLINT) readout was resorufin-beta-D-galactopiranoside (Sigma-Aldrich) at 5uM per well. It was diluted in PBS supplemented with the soft detergent Igepal (Fluka). The format is functional, organism-based, Mus musculus. The following applies: Tulahuen, NIH3T3.

For data set [2], the system named is Trypanosoma cruzi. In words: (§1) GSK_TCAKS: pIC50 Trypanosoma cruzi Imaging: Infected Cells. […] Cells were then washed once with PBS before infection. T. cruzi trypomastigotes, collected at days 5 to 8 after infection from LLC-MK2 parasite infected cultures, were allowed to swim out for 4h at 37C from a centrifuged pellet (2,500 rpm/10 min/room temperature). Trypomastigotes were then collected and counted in a CASY Cell Counter. Trypomastigotes, in supplemented DMEM, were added to H9c2 cultures in a multiplicity of infection of 1 and incubated for 18 h. Cells were washed once with PBS before incubation of the infected H9c2 monolayer with trypsin (Life-Technologies) to detach cells from the flask. Cells were counted in a CASY Cell Counter using a 150 um capillary and their density set at 5 * 10^4 cells per mL in supplemented assay DMEM. Infected H9c2 were dispensed into 384-well poly-lysine coated assay plates at 50uL per well using a Multidrop Combi dispenser. After seeding them, the plates were incubated at 37C, 5% CO2 for 72h. Cultures were then fixed and stained by addition of 50 uL of a solution containing 8% formaldehyde and 4 uM DRAQ5 DNA dye (BioStatus, UK) per well. […] Five images were collected per well for reliable statistical analysis. Automated image analysis was performed with a script developed on Acapella High Content Imaging and Analysis Software (PerkinElmer). Output: percentage of infected cells per well as a second infection marker. The format is functional, organism-based, Rattus norvegicus. The following applies: H9c2, 4 h.

Data set [3] relates to Trypanosoma cruzi. The experiment in a line: GSK_TCAKS: pIC50 Trypanosoma cruzi Imaging: Amastigotes/Cell. […] Cells were then washed once with PBS before infection. T. cruzi trypomastigotes, collected at days 5 to 8 after infection from LLC-MK2 parasite infected cultures, were allowed to swim out for 4h at 37C from a centrifuged pellet (2,500 rpm/10 min/room temperature). Trypomastigotes were then collected and counted in a CASY Cell Counter. Trypomastigotes, in supplemented DMEM, were added to H9c2 cultures in a multiplicity of infection of 1 and incubated for 18 h. Cells were washed once with PBS before incubation of the infected H9c2 monolayer with trypsin (Life-Technologies) to detach cells from the flask. Cells were counted in a CASY Cell Counter using a 150 um capillary and their density set at 5 * 10^4 cells per mL in supplemented assay DMEM. Infected H9c2 were dispensed into 384-well poly-lysine coated assay plates at 50uL per well using a Multidrop Combi dispenser. After seeding them, the plates were incubated at 37C, 5% CO2 for 72h. Cultures were then fixed and stained by addition of 50 uL of a solution containing 8% formaldehyde and 4 uM DRAQ5 DNA dye (BioStatus, UK) per well. […] Five images were collected per well for reliable statistical analysis. Automated image analysis was performed with a script developed on Acapella High Content Imaging and Analysis Software (PerkinElmer). Output: number of amastigotes per cell as infection level measurement. Format: functional, organism-based, Rattus norvegicus. The following applies: H9c2, 4 h.

Data set [4] has as its system Trypanosoma cruzi. The data set is described as §1, with “H2C9” for “Trypanosoma cruzi”, “H9c2 Host Cardiomyocytes.” for “Infected Cells.”, “Number” for “percentage”, “H9c2 Host Cardiomyocytes nuclei to determine drug-related cytotoxicity.” for “infected cells per well as a second infection marker.”. Particulars: H9c2, 4 h. Format: functional, organism-based, Rattus norvegicus.

Data set [5] has as its system Leishmania donovani. The experiment in a line: GSK_TCAKS: pIC50 Leishmania donovani viability assay using fluorescence intensity. Assay plates (1536-well) were prepared by adding 30nL per well of compound. For single shot assay, the final compound concentration was 5uM. […] Briefly, eGFP LdBOB axenic amastigotes were harvested, fixed and counted in a CASY cell counter (Roche-Applied Science). A final concentration of 1.5 * 10^5 cells per well were prepared in amastigote media containing 500 U/mL penicillin/streptomycin (Invitrogen) and 6uL was dispensed to each experimental well using a Multidrop Combi dispenser (Thermo Scientific). 6uL of assay media was dispensed to control columns used as reference for 100% compound response. Following incubation for 72 h at 37C, 5% CO2, 2 uL of resazurin was added to each well at a final concentration of 0.5 mM in phosphate buffered saline (PBS) with IGEPAL (Sigma-Aldrich), 0.05% (v/v). The format is functional, organism-based. A general note: Resazurin is reduced to fluorescent resorufin, in cell work by metabolically active cells.

In data set [6] the test system is Leishmania donovani. In words: GSK_TCAKS: pIC50 Leishmania donovani Imaging: Infected Macrophages. Assay plates (384-well) were prepared by adding 250nL of compound to each well. For single shot assay, the final compound concentration was 5 uM. […] Automated image analysis was performed with a script developed on Acapella High Content Imaging and Analysis Software (PerkinElmer). Output: Percent of infected macrophage cells were reported for each well. The format is functional, organism-based, Homo sapiens. Particulars: THP-1.

Data set [7] has as its system Leishmania donovani. The experiment in a line: GSK_TCAKS: pIC50 Leishmania donovani Imaging: Amastigotes/Macrophages. Assay plates (384-well) were prepared by adding 250nL of compound to each well. For single shot assay, the final compound concentration was 5 uM. […] Automated image analysis was performed with a script developed on Acapella High Content Imaging and Analysis Software (PerkinElmer). Output: Average number of amastigotes per macrophage cell were reported for each well. The format is functional, organism-based, Homo sapiens. Particulars: THP-1.

The subject of data set [8] is Leishmania donovani. In words: GSK_TCAKS: pIC50 Leishmania donovani Imaging: THP-1 Host Macrophages. Assay plates (384-well) were prepared by adding 250nL of compound to each well. For single shot assay, the final compound concentration was 5 uM. […] Automated image analysis was performed with a script developed on Acapella High Content Imaging and Analysis Software (PerkinElmer). Output: THP-1 cell count were reported for each well. Format: functional, organism-based, Homo sapiens.

In data set [9] the test system is Trypanosoma brucei brucei. The experiment in a line: GSK_TCAKS: pIC50 Trypanosoma brucei viability assay using fluorescence intensity. Assay plates (1536-well) were prepared by dispensing 25nL of compound solution per well using an Echo acoustic dispenser (Labcyte). The following applies: Lister 427, 2 h. Format: functional, organism-based.
Data set [10] has as its system Trypanosoma brucei brucei. In words: GSK_TCAKS: pIC50 Trypanosoma brucei viability assay using luminiscence. Assay plates (1536-well) were prepared. T. brucei cultures were harvested and counted in a CASY cell counter. A parasite suspension was prepared at a final concentration of 5 * 10^4 cells/mL in complete HMI9 medium and 6uL was dispensed to all wells containing compounds using a Multidrop Combi dispenser. 6uL of HMI9 media with 0.4% DMSO were dispensed to control columns. Plates were incubated for 24 h at 37C, 5% CO2 then tempered for 10 min at room temperature. ATP content was quantified by adding 4 uL of CellTiter-Glo Reagent (Promega) according to the manufacturer's instructions. Luminescence was measured using a ViewLux. The format is functional, organism-based. Particulars: Lister 427, CASY. Background: ATP-based viability assays read luminescence as a measure of living cells.

A short description of data set [11]: GSK_TCAKS: pIC50 HepG2 human cell line viability assay using luminiscence. […] Seeding density was checked to ensure that new mono-layers were not more than 50% confluent at the time of harvesting. Cell suspension was added to 500 mL of the same medium at a final density of 1.2 * 10^5 cells/mL. This cell suspension was dispensed (25 uL, 3000 cells per well) into 384-well clear-bottom plates using a Multidrop Combi dispenser. Prior to addition of the cell suspension, the screening compounds (250 nL) were pre-dispensed into the plates with an Echo liquid handler. Plates were incubated for 48 h at 37C, 5% CO2. After incubation, plates equilibrated at room temperature for 30 min before proceeding to develop the luminescent signal. The signal developer, CellTiter-Glo Reagent, was allowed to equilibrate at room temperature for 30 min and added to the plates (25uL per well) using a Multidrop Combi dispenser. Plates were left for 10 min at room temperature for stabilization and then read using a ViewLux. The format is toxicity, cell-based.

Data set [12] addresses Sterol 14-alpha demethylase (Trypanosoma cruzi (strain CL Brener), UniProt Q7Z1V1). The experiment in a line: GSK_TCAKS: pIC50 CYP51 from Trypanosoma cruzi. The format is functional.

Usually IC50 stands for the concentration that inhibits the measured activity by half.

Sequence of Sterol 14-alpha demethylase (Q7Z1V1 whole entry): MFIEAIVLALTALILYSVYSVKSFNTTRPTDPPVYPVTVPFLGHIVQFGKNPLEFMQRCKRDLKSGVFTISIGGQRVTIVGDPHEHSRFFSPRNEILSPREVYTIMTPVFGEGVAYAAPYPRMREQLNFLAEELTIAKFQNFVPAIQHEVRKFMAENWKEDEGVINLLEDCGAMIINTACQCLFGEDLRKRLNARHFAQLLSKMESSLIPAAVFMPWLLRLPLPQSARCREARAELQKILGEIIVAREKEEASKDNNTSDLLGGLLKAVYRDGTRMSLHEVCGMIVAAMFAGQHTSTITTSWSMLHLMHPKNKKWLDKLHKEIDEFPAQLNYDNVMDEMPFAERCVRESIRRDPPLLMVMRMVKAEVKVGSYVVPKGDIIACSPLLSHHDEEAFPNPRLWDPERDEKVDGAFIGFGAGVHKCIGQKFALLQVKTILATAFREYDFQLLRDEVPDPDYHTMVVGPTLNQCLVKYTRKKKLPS

Consider `COCCn1c(-c2ccccc2)cnc1NCc1ccccc1OC`, for which the concentration for half-maximal inhibition (IC50) in data set [1] is 14.1 µM; in data set [2], 15.8 µM; in data set [3], 6.31 µM; in data set [4], > 50.1 µM; in data set [5], > 50.1 µM; in data set [6], 6.31 µM. In addition, the concentration for half-maximal inhibition (IC50) was 6.31 µM in data set [7]; 50.1 µM in [8]; 25.1 µM in data set [9]; 15.8 µM in [10]; 7.94 µM in data set [12]. In data set [11], this compound showed an IC50 at 48 h of 20 µM.

`O=C(Nc1nccs1)c1ccccc1Cn1cc([N+](=O)[O-])cn1`: the IC50 in data set [1], in [2], in data set [3], in data set [4], in data set [5] and in [6] was > 50.1 µM in each case. The IC50 in data set [7] is > 50.1 µM; in [8] it was > 50.1 µM; in data set [9] it was 0.316 µM; in [10], 0.501 µM; in data set [12], > 100 µM. In addition, the 50% inhibitory concentration (IC50) at 48 h in [11] is > 100 µM.

For `c1ccc(CNc2cccc3ccncc23)cc1`, the IC50 in data set [1] is 6.31 µM; in data set [2], 6.31 µM; in data set [3], 5.01 µM; in [4], > 50.1 µM; in [5], 10 µM; in data set [6], 7.94 µM. For the same compound, the 50% inhibitory concentration (IC50) in data set [7] was 5.01 µM; in [8], 50.1 µM; in [9], 25.1 µM; in [10], > 39.8 µM; in data set [12], 0.1 µM. Further, the 50% inhibitory concentration (IC50) at 48 h in data set [11] is > 100 µM.

As to `CCN(CC)S(=O)(=O)c1ccc(OC)c(NC(=O)c2ccc([N+](=O)[O-])s2)c1`, the IC50 in data set [1] was 0.251 µM; in data set [2], 0.158 µM; in [3] it was 0.126 µM; in [4], > 50.1 µM; in [5] it was > 50.1 µM; in data set [6], > 50.1 µM. In addition, the IC50 was > 50.1 µM in data set [7]; > 50.1 µM in [8]; 0.398 µM in data set [9]; 0.631 µM in data set [10]; 31.6 µM in data set [12]. The IC50 at 48 h in data set [11] is > 100 µM.

For `NS(=O)(=O)c1ccc(CNC(=O)c2ccc([N+](=O)[O-])s2)cc1`, the IC50 was 1 µM in data set [1]; 5.01 µM in data set [2]; 0.794 µM in data set [3]; 20 µM in data set [4]; 31.6 µM in [5]; 25.1 µM in data set [6]. The concentration for half-maximal inhibition (IC50) in data set [7] was 12.6 µM; in data set [8], 39.8 µM; in data set [9], 0.251 µM; in [10], 0.251 µM; in data set [12] it was 39.8 µM. The compound further gave an IC50 at 48 h in data set [11] of 15.8 µM.

Regarding `Cc1ccccc1NS(=O)(=O)c1ccc2[nH]cc(C(=O)NC3CCCC3)c(=O)c2c1`, the half-maximal inhibitory concentration (IC50) is 25.1 µM in [1]; 31.6 µM in data set [2]; 25.1 µM in data set [3]; 20 µM in data set [4]; > 50.1 µM in data set [5]; > 50.1 µM in data set [6]. For the same compound, the IC50 is 39.8 µM in data set [7]; 31.6 µM in [8]; 0.316 µM in data set [9]; 0.631 µM in [10]; 12.6 µM in data set [12]. In data set [11], this compound showed an IC50 at 48 h of 25.1 µM.
